Our source for the inhibition values is publication PMC12062220, “Unveiling the role of Ndrg1 gene on the oxidative stress induction behind the anticancer potential of styrylquinazoline derivatives” (Scientific Reports, 2025).

Common to all, as to assay: ADP-Glo kinase assay (Promega), % inhibition at […]
Holding throughout (type): biochemical

In one test the target is T1, HER2 (Homo sapiens, UniProt P04626).
T1 construct: gene ERBB2

The target of test [1] is insulin-like growth factor 1 receptor (IGF1R) (Homo sapiens, UniProt P08069).
Sequence of insulin-like growth factor 1 receptor (IGF1R) (P08069 31-736): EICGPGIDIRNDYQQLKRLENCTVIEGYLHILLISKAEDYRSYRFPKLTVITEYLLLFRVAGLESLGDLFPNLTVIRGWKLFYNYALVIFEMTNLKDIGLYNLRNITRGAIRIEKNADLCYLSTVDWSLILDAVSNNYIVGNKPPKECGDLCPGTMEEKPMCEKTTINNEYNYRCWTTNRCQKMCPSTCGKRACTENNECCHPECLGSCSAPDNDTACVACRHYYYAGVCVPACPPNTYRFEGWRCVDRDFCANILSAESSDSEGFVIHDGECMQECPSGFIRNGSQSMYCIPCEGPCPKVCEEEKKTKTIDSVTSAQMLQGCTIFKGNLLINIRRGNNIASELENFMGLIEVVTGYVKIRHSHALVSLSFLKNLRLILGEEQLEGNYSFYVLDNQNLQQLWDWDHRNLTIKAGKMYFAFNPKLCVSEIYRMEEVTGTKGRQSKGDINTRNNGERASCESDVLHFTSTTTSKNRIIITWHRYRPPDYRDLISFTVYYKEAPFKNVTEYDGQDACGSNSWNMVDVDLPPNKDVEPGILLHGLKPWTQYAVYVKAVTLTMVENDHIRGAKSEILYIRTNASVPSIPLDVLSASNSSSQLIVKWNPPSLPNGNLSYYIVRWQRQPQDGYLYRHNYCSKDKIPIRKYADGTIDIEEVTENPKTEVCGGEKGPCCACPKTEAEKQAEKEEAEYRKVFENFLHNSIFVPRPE
Sequence of insulin-like growth factor 1 receptor (IGF1R) (P08069 741-1367): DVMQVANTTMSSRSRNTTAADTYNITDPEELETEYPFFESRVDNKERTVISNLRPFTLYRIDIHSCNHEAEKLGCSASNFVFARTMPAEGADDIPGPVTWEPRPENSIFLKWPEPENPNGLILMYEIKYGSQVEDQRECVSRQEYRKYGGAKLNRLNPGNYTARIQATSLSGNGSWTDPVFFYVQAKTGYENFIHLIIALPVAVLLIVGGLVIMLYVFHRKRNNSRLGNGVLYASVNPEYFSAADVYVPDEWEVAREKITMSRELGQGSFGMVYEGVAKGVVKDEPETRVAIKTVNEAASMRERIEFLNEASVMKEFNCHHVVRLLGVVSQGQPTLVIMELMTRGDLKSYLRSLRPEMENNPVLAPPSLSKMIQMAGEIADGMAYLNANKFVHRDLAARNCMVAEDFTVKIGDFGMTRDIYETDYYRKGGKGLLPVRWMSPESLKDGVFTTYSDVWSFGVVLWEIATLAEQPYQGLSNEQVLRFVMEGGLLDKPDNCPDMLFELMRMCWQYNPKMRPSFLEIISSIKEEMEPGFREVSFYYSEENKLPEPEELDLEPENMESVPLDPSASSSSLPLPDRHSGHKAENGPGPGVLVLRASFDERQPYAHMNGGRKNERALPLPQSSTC
The target in a further test is EGFR (Homo sapiens, UniProt P00533).
Sequence of EGFR (P00533 25-1210): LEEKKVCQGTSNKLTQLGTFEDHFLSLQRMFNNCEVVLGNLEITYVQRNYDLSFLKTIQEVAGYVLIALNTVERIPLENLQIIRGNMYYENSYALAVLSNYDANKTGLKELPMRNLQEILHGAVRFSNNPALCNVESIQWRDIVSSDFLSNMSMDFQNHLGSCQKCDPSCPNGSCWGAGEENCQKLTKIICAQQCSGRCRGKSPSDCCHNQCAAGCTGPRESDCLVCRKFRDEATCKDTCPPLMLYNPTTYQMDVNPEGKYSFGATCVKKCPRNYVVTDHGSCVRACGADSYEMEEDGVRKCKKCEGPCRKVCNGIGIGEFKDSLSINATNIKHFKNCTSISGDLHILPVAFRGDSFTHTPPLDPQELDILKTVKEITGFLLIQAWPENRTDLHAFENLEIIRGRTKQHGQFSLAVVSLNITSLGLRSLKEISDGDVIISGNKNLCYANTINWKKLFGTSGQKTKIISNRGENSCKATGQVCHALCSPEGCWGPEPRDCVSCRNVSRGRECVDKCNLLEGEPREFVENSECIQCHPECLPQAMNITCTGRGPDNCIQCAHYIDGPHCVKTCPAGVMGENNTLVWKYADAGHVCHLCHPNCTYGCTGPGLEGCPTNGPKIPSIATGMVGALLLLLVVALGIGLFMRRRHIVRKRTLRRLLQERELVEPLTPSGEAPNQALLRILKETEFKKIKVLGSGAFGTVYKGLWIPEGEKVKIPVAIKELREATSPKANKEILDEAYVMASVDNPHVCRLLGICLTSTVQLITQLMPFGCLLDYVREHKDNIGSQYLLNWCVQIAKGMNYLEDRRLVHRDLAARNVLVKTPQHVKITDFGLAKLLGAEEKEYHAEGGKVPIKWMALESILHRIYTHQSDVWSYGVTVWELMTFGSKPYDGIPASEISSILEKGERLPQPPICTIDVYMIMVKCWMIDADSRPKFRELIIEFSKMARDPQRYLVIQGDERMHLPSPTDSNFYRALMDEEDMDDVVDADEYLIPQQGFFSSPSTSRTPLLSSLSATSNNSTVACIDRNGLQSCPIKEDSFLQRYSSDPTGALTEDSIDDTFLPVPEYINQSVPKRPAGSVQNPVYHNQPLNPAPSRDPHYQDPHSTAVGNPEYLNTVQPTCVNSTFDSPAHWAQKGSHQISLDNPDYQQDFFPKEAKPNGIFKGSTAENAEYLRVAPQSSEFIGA

T1 sequence (P04626 23-1255): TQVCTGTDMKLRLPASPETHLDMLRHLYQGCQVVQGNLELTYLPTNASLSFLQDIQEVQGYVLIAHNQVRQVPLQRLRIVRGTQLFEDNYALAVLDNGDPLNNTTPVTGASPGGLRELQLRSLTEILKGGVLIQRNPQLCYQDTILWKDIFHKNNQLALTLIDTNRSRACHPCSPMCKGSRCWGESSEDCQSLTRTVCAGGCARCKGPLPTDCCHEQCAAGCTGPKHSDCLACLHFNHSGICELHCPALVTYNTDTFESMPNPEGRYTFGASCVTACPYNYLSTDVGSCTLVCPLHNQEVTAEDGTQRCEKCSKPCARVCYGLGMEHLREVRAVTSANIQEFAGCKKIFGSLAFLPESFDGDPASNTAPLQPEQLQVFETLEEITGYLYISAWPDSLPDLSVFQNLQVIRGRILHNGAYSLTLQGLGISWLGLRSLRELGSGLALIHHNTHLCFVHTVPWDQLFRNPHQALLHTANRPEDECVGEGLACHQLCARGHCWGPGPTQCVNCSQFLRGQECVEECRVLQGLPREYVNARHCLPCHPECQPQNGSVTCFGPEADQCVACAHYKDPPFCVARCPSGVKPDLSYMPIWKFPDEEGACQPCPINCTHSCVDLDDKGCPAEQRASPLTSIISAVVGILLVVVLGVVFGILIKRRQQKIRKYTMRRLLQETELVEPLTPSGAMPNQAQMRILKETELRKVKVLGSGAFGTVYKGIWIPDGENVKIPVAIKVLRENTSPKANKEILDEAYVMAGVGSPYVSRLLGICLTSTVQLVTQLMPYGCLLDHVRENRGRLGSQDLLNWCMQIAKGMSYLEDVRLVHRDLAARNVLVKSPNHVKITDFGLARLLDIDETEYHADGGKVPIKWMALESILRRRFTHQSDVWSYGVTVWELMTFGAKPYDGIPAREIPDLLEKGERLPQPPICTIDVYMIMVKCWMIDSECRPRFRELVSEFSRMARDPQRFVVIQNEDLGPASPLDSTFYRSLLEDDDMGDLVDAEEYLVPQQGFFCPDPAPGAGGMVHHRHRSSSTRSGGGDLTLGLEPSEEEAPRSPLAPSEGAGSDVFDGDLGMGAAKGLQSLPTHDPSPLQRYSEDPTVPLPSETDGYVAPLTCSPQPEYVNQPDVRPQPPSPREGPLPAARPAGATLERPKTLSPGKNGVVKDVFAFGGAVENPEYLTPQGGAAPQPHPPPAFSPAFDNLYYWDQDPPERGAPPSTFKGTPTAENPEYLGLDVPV

As for `COc1ccccc1/C=C/c1nc(Nc2ccc3c(c2)OCO3)c2ccccc2n1` [IS20, N-(1,3-benzodioxol-5-yl)-2-[(E)-2-(2-methoxyphenyl)vinyl] quinazolin-4-amine], the figures for the inhibition at 1 µM (against HER2; in test [1]; at EGFR) were 25 to 30%, 40% and 25 to 30%, respectively.
